Assay results reported in PubChem BioAssay (NCI).
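Method: 48-hour compound exposure of cells in 96-well plates, five concentrations, linear interpolation of endpoints. TGI is the concentration that stops growth completely.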

Experiments:
Test in all cases: NCI-60 cell line screen, 48 h
RPMI-8226 leukemia = tested on: RPMI-8226 leukemia
SNB-75 CNS = tested on: SNB-75 CNS
K-562 leukemia = tested on: K-562 leukemia
NCI-H460 lung = tested on: NCI-H460 lung
MDA-MB-231 breast = tested on: MDA-MB-231 breast
SF-539 CNS = tested on: SF-539 CNS
ACHN renal = tested on: ACHN renal
LOX IMVI melanoma = tested on: LOX IMVI melanoma
HOP-62 NSCLC = tested on: HOP-62 NSCLC
OVCAR-4 ovarian = tested on: OVCAR-4 ovarian
SR leukemia = tested on: SR leukemia
UACC-62 melanoma = tested on: UACC-62 melanoma
MDA-N = tested on: MDA-N
MOLT-4 leukemia = tested on: MOLT-4 leukemia
UACC-257 melanoma = tested on: UACC-257 melanoma
SK-MEL-28 melanoma = tested on: SK-MEL-28 melanoma
RXF 393 renal = tested on: RXF 393 renal
MALME-3M melanoma = tested on: MALME-3M melanoma
HT29 colon = tested on: HT29 colon
SNB-19 CNS = tested on: SNB-19 CNS
NCI/ADR-RES ovarian = tested on: NCI/ADR-RES ovarian
MDA-MB-435 = tested on: MDA-MB-435
HS 578T breast = tested on: HS 578T breast
SF-268 CNS = tested on: SF-268 CNS
NCI-H226 lung = tested on: NCI-H226 lung
TK-10 renal = tested on: TK-10 renal
CAKI-1 renal = tested on: CAKI-1 renal
SW-620 colon = tested on: SW-620 colon
HCC-2998 colon = tested on: HCC-2998 colon
PC-3 prostate = tested on: PC-3 prostate
U251 CNS = tested on: U251 CNS
SK-MEL-5 melanoma = tested on: SK-MEL-5 melanoma
SK-OV-3 ovarian = tested on: SK-OV-3 ovarian
OVCAR-8 ovarian = tested on: OVCAR-8 ovarian
T-47D breast = tested on: T-47D breast
SK-MEL-2 melanoma = tested on: SK-MEL-2 melanoma
DU-145 prostate = tested on: DU-145 prostate
UO-31 renal = tested on: UO-31 renal
M14 melanoma = tested on: M14 melanoma
NCI-H522 lung = tested on: NCI-H522 lung
CCRF-CEM leukemia = tested on: CCRF-CEM leukemia
786-0 renal = tested on: 786-0 renal
OVCAR-5 ovarian = tested on: OVCAR-5 ovarian
BT-549 breast = tested on: BT-549 breast
SN12C renal = tested on: SN12C renal
MCF7 breast = tested on: MCF7 breast
HCT-15 colon = tested on: HCT-15 colon
SF-295 CNS = tested on: SF-295 CNS
NCI-H23 lung = tested on: NCI-H23 lung
EKVX NSCLC = tested on: EKVX NSCLC
HCT-116 colon = tested on: HCT-116 colon
IGROV1 ovarian = tested on: IGROV1 ovarian
COLO 205 colon = tested on: COLO 205 colon
OVCAR-3 ovarian = tested on: OVCAR-3 ovarian
A549 NSCLC = tested on: A549 NSCLC

Q: For `CC(=O)OCC1OC(OC(C)=O)C(Nc2ncc(-c3ccc(C)cc3)s2)C(OC(C)=O)C1OC(C)=O` (stereo not given), which TGI (RPMI-8226 leukemia) is on record?
A: 64.3 µM

Q: And the TGI (SNB-75 CNS)?
A: 37.6 µM

Q: What about the TGI (K-562 leukemia) of the same compound?
A: 65.8 µM

Q: And the TGI (NCI-H460 lung)?
A: 40.7 µM

Q: What about the TGI (MDA-MB-231 breast) of the same compound?
A: 49.8 µM

Q: And the TGI (SF-539 CNS)?
A: 37.7 µM

Q: And the TGI (ACHN renal)?
A: 27.7 µM

Q: And the TGI (LOX IMVI melanoma)?
A: 32 µM

Q: What about the TGI (HOP-62 NSCLC) of the same compound?
A: 42.2 µM

Q: And the TGI (OVCAR-4 ovarian)?
A: 35.4 µM

Q: What about the TGI (SR leukemia) of the same compound?
A: > 100 µM

Q: What about the TGI (UACC-62 melanoma) of the same compound?
A: 29 µM

Q: What about the TGI (MDA-N) of the same compound?
A: 35.3 µM

Q: What about the TGI (MOLT-4 leukemia) of the same compound?
A: 49.2 µM

Q: What about the TGI (UACC-257 melanoma) of the same compound?
A: 49.1 µM

Q: And the TGI (SK-MEL-28 melanoma)?
A: 31.2 µM

Q: What about the TGI (RXF 393 renal) of the same compound?
A: 29.6 µM

Q: What about the TGI (MALME-3M melanoma) of the same compound?
A: 41.5 µM

Q: And the TGI (HT29 colon)?
A: 56.1 µM

Q: And the TGI (SNB-19 CNS)?
A: 52.9 µM

Q: And the TGI (NCI/ADR-RES ovarian)?
A: 76.8 µM

Q: And the TGI (MDA-MB-435)?
A: 30.3 µM

Q: And the TGI (HS 578T breast)?
A: 69.5 µM

Q: What about the TGI (SF-268 CNS) of the same compound?
A: 36.2 µM

Q: And the TGI (NCI-H226 lung)?
A: 50.4 µM

Q: And the TGI (TK-10 renal)?
A: 32.9 µM

Q: What about the TGI (CAKI-1 renal) of the same compound?
A: 31.2 µM

Q: And the TGI (SW-620 colon)?
A: 45.4 µM

Q: And the TGI (HCC-2998 colon)?
A: 57.7 µM

Q: What about the TGI (PC-3 prostate) of the same compound?
A: 45.3 µM

Q: And the TGI (U251 CNS)?
A: 31.6 µM

Q: And the TGI (SK-MEL-5 melanoma)?
A: 29.2 µM

Q: And the TGI (SK-OV-3 ovarian)?
A: > 100 µM

Q: What about the TGI (OVCAR-8 ovarian) of the same compound?
A: 69.9 µM

Q: What about the TGI (T-47D breast) of the same compound?
A: 48.8 µM

Q: And the TGI (SK-MEL-2 melanoma)?
A: 59.7 µM

Q: What about the TGI (DU-145 prostate) of the same compound?
A: > 100 µM

Q: What about the TGI (UO-31 renal) of the same compound?
A: 27.9 µM

Q: And the TGI (M14 melanoma)?
A: 33.4 µM

Q: What about the TGI (NCI-H522 lung) of the same compound?
A: 34.3 µM

Q: What about the TGI (CCRF-CEM leukemia) of the same compound?
A: 55 µM

Q: What about the TGI (786-0 renal) of the same compound?
A: 40.1 µM

Q: What about the TGI (OVCAR-5 ovarian) of the same compound?
A: > 100 µM

Q: What about the TGI (BT-549 breast) of the same compound?
A: 36.7 µM

Q: And the TGI (SN12C renal)?
A: 40.8 µM

Q: And the TGI (MCF7 breast)?
A: 52.1 µM

Q: What about the TGI (HCT-15 colon) of the same compound?
A: 60 µM

Q: And the TGI (SF-295 CNS)?
A: 76.3 µM

Q: And the TGI (NCI-H23 lung)?
A: 31.9 µM

Q: And the TGI (EKVX NSCLC)?
A: 27.6 µM

Q: What about the TGI (HCT-116 colon) of the same compound?
A: 32.1 µM

Q: What about the TGI (IGROV1 ovarian) of the same compound?
A: 36.4 µM

Q: What about the TGI (COLO 205 colon) of the same compound?
A: 38 µM

Q: And the TGI (OVCAR-3 ovarian)?
A: 35.1 µM

Q: What about the TGI (A549 NSCLC) of the same compound?
A: 47.9 µM
